Assay results: US10035818B2, “Polyethylene glycol based prodrug of adrenomedullin and use thereof” (Bayer Pharma Aktiengesellschaft, priority 2011, dated 2018)
Where no end group is shown, it is not given here. Side-chain parts run from the residue outwards. Dab = NCC[C@H](N)C(=O)O

Experiments:
normotensive Wistar rats = assay: Blood pressure and heart rate in telemetered, normotensive Wistar rats; assay type: in vivo
Excerpt: The cardiovascular effects induced by compounds according to the invention are investigated in freely moving conscious female Wistar rats (body weight>200 g) by radiotelemetric measurement of blood pressure and heart rate. Briefly, the telemetric system (DSI Data Science International, MN, USA) is composed on 3 basic elements: implantable transmitters (TA11PA-C40), receivers (RA1010) and a computer-based acquisition software (Dataquest™ A.R.T. 4.1 for Windows). Rats are instrumented with pressure implants for chronic use at least 14 days prior to the experiments. The sensor catheter is tied with 4-0 suture several times to produce a stopper 0.5 cm from the tip of the catheter. During catheter implantation rats are anesthetized with pentobabital (Nembutal, Sanofi: 50 mg/kg i.p.). After shaving the abdominal skin, a midline abdominal incision is made, and the fluid-filled sensor catheter is inserted upstream into the exposed descending aorta between the iliac bifurcation and the renal arteries. The catheter is tied several times at the stopper. The tip of the telemetric catheter is located just caudal to the renal arteries and secured by tissue adhesive. The transmitter body is affixed to the inner peritoneal wall before closure of abdomen. A two-layer closure of the abdominal incision is used, with individual suturing of the peritoneum and the muscle wall followed by closure of the outer skin. For postsurgical protection against infections and pain a single dosage of an antibiotic (Oxytetracyclin 10% R, 5.0 ml/kg s.c., beta-pharma GmbH&Co, Germany) and analgesic is injected (Rimadyl R, 5.0 ml/kg s.c., Pfizer, Germany). The hardware configuration is equipped for 24 animals. Each rat cage is positioned on top of an individual receiver platform. After activation of the implanted transmitters, an on-line data acquisition system, samples data and converts telemetric pressure signals to mm Hg. A barometric pressure reference allows for relation of absolute pressure (relative to vacuum) to ambient atmospheric pressure. […]

[1] = molecular target: T1, human adrenomedullin-receptor (Homo sapiens, UniProt O60895+Q16602); assay: Recombinant adrenomedullin-receptor reporter cell (CHO, aequorin luminescence); assay type: cell-based; settings: before incubation; read-out: EC50 T = 0 h
T1 construct: expressed in transfected cells; host or cells: CHO (Chinese hamster ovary) aequorin reporter cell line
T1 sequence (Q16602 23-461): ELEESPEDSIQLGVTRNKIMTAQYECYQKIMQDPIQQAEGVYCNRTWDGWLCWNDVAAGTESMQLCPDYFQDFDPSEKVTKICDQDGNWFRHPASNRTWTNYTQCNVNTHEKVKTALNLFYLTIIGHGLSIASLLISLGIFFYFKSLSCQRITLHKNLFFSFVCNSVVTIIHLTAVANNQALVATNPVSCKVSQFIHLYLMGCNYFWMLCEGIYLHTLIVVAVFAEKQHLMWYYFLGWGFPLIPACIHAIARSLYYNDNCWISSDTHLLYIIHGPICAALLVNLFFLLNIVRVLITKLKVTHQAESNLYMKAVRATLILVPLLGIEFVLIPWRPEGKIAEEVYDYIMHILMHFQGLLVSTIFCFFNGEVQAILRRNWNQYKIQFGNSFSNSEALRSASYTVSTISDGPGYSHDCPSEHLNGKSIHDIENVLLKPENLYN
T1 sequence (O60895 43-175): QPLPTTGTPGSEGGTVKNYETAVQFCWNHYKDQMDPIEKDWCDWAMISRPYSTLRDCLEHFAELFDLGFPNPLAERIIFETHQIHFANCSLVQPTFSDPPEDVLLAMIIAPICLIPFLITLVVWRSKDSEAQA
Protocol: Activation of the receptor by ligands can be measured by aequorin luminescence. Construction of the cell line and measurement procedure has been described in detail [Wunder F., Rebmann A., Geerts A, and Kalthof B., Mol Pharmacol, 73, 1235-1243 (2008)]. In brief: Cells are seeded on opaque 384-well microtiter plates at a density of 4000 cells/well and are grown for […]. After removal of culture medium, cells are loaded for 3 h with 0.6 μg/ml coelenterazine in Ca^2+-free Tyrode solution (130 mM sodium chloride, 5 mM potassium chloride, 20 mM HEPES (4-(2-hydroxyethyl)-1-piperazineethanesulfonic acid), 1 mM magnesium chloride, and 4.8 mM sodium hydrogen carbonate, pH 7.4) supplemented with 0.2 mM 3-Isobutyl-1-methylxanthine (IBMX) in a cell culture incubator. Compounds are added for 6 min in calcium^2+-free Tyrode solution containing 0.1% bovine serum albumin. Immediately before adding calcium^2+ to a final concentration of 3 mM measurement of the aequorin luminescence is started by use of a suitable luminometer. Luminescence is measured for 60 s.

Göttingen minipigs [2] = assay: Acute lung injury in mini pigs induced by intratracheal LPS; assay type: in vivo
Excerpt: (§1) Acute lung injury is induced in anesthetized mini pigs by use of lipopolysaccharide (LPS) or oleic acid as challenges. In detail: female Göttingen minipigs of ca. 3.5 to 5.5 kg body weight (Ellegaard, Denmark) are kept anesthetized by an continuous i.v.-infusion of Ketavet®, Dormicum® and Pancuronium® after premedication with an intramuscular injection of Ketavet®/Stresnil®. After intratracheal intubation animals are artificially ventilated using a pediatric respirator (Sulla 808V; Dräger, Germany) with an oxygen air mixture at a tidal volume of 30 to 50 ml and constant frequency of 25 min^−1. Arterial PaCO2 is adjusted to about 40 mmHg by […]. […] Cellular content of BALF is determined by use of a blood cell counter (Cell DYN 3700). […]

Göttingen minipigs [3] = assay: Acute lung injury in mini pigs induced by oleic acid infusion; assay type: in vivo
Excerpt: as §1

Q: For CC[C@H](C)[C@H](NC(=O)[C@H](CCC(N)=O)NC(=O)[C@H](Cc1c[nH]cn1)NC(=O)[C@H](C)NC(=O)[C@H](CC(C)C)NC(=O)[C@H](CCCCN)NC(=O)[C@H](CCC(N)=O)NC(=O)[C@@H](NC(=O)[C@@H](NC(=O)[C@@H]1CSSC[C@H](NC(=O)CNC(=O)[C@H](Cc2ccccc2)NC(=O)[C@H](CO)NC(=O)[C@H](CCCNC(=N)N)NC(=O)[C@H](CC(C)C)NC(=O)CNC(=O)[C@H](CCC(N)=O)NC(=O)[C@H](Cc2ccccc2)NC(=O)[C@H](CC(N)=O)NC(=O)[C@H](CC(N)=O)NC(=O)[C@H](CCSC)NC(=O)[C@H](CO)NC(=O)[C@H](CCC(N)=O)NC(=O)[C@H](CCCNC(=N)N)NC(=O)[C@@H](N)Cc2ccc(O)cc2)C(=O)N[C@@H](CCCNC(=N)N)C(=O)N[C@@H](Cc2ccccc2)C(=O)NCC(=O)N[C@@H]([C@@H](C)O)C(=O)N1)[C@@H](C)O)C(C)C)C(=O)N[C@@H](Cc1ccc(O)cc1)C(=O)N[C@@H](CCC(N)=O)C(=O)N[C@@H](Cc1ccccc1)C(=O)N[C@H](C(=O)N[C@@H](CC(=O)O)C(=O)N[C@@H](CCCCN)C(=O)N[C@@H](CC(=O)O)C(=O)N[C@@H](CCCCN)C(=O)N[C@@H](CC(=O)O)C(=O)N[C@@H](CC(N)=O)C(=O)N[C@H](C(=O)N[C@@H](C)C(=O)N1CCC[C@H]1C(=O)N[C@@H](CCCNC(=N)N)C(=O)N[C@@H](CO)C(=O)N[C@@H](CCCCN)C(=O)N[C@H](C(=O)N[C@@H](CO)C(=O)N1CCC[C@H]1C(=O)N[C@@H](CCC(N)=O)C(=O)NCC(=O)N[C@@H](Cc1ccc(O)cc1)C(N)=O)[C@@H](C)CC)C(C)C)[C@@H](C)O [ADM, adrenomedullin (human)], which “duration of blood pressure reduction” value (normotensive Wistar rats) is on record?
A: The value was no more than 4 h.

Q: And the “time after which MABP had returned to base line levels” value (normotensive Wistar rats; subcutaneous, FIG. 1)?
A: The value was “about 3.5 hours”.

Q: What about the “mean reduction of MABP at peak” value (normotensive Wistar rats; subcutaneous, one hour after administration, FIG. 1) of the same compound?
A: The value was roughly 20%.

Q: Which EC50 [1] does the source give for “O-{[(3-N-Methyl-amino-4-({(2R)-1-amino-3-[(2,5-dioxo-1-{3-oxo-3-[(2-{ω-methoxy-poly-oxyethylen[40 kDa]}ethyl)amino]propyl}pyrrolidin-3-yl)sulfanyl]-1-oxopropan-2-yl}amino)-4-oxobutyl]carbamoyl}-L-tyrosyl-adrenomedullin(2-52) [Example 2]” here?
A: Its EC50 is greater than 1000 nM.

Q: Which results are given for “O-{[(3 S)-3-Amino-4-({(2R)-1-amino-3-[(2,5-dioxo-1-{3-oxo-3-[(2-{ω-methoxy-poly-oxyethylen[40 kDa]}ethyl)amino]propyl}pyrrolidin-3-yl)sulfanyl]-1-oxopropan-2-yl}amino)-4-oxobutyl]carbamoyl}-L-tyrosyl-adrenomedullin(2-52) (Y([Dab-Cys‑NH2-succinimide-PEG 40 kDa])RQSMNNFQGLRSFGCRFGTCTVQKLAHQIYQFTDKDKDNVAPRSKISPQGY; cysteine pairing not given here; also: PEG 40 kDa prodrug linker attached by carbamate to Tyr1 phenol O; UniProt P35318 95-146, looked up) [Example 1, PEG 40 kDa based prodrug of adrenomedullin]”?
A: doses found to be active (Göttingen minipigs [2]; as referred to the peptide component, LPS protocol): ≤ 30 μg/kg body weight; LPS induced changes (PAP, EVWLI, PaO2/FiO2, cellular content of BALF) (Göttingen minipigs [2]; i.v.-bolus 15 min before the LPS challenge): ameliorated or prevented; oleic acid induced changes (PAP, EVLWI, PaO2/FiO2) (Göttingen minipigs [3]; administration 15 min before start of the OA infusion): ameliorated or prevented; doses found to be active (Göttingen minipigs [3]; as referred to the peptide component, oleic acid protocol): ≤ 30 μg/kg body weight
